Assay results published in the supplement of paper PMC10307832.

Assays:
Assay in all cases: relative viability (nuclei count vs DMSO), 5 days (fraction); higher = more cells survive
Motesanib + Trametinib = compound: CC1(C)CNc2cc(NC(=O)c3cccnc3NCc3ccncc3)ccc21 [Motesanib] + CC(=O)Nc1cccc(-n2c(=O)n(C3CC3)c(=O)c3c(Nc4ccc(I)cc4F)n(C)c(=O)c(C)c32)c1 [Trametinib] (partner 0.02 µM)
Outline: (§1)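 Relative viability was taken as the ratio of nuclei in treated wells to nuclei in vehicle wells. Lung cancer cell lines in 1536-well plates received compounds by pin tool one day after seeding, either one drug alone or a fixed anchor-drug dose plus five library-drug doses (not always all listed) in √10 steps. Nuclei were counted on 4× images after 5 days of treatment, and values are medians of duplicate plates.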

Motesanib + Pictilisib = compound: CC1(C)CNc2cc(NC(=O)c3cccnc3NCc3ccncc3)ccc21 [Motesanib] + CS(=O)(=O)N1CCN(Cc2cc3nc(-c4cccc5[nH]ncc45)nc(N4CCOCC4)c3s2)CC1 [Pictilisib] (partner 1 µM)
Outline: as §1

Motesanib + AZD7762 = compound: CC1(C)CNc2cc(NC(=O)c3cccnc3NCc3ccncc3)ccc21 [Motesanib] + NC(=O)Nc1cc(-c2cccc(F)c2)sc1C(=O)N[C@H]1CCCNC1 [AZD7762] (partner 0.2 µM)
Outline: as §1

[1] = compound: C[C@@]1(C(=O)Nc2ccc(F)nc2)CCCN1c1nc(Nc2cc(C3CC3)n[nH]2)c2cccn2n1 + N=C(N)NC(=N)NCCc1ccccc1 [Phenformin] (partner 250 µM)
Outline: as §1

Cell Line	relative viability (Motesanib + Trametinib; first compound 0.01 µM)	relative viability (Motesanib + Trametinib; first compound 0.03162 µM)	relative viability (Motesanib + Trametinib; first compound 0.1 µM)	relative viability (Motesanib + Trametinib; first compound 0.3162 µM)	relative viability (Motesanib + Trametinib; first compound 1 µM)	relative viability (Motesanib + Pictilisib; first compound 0.01 µM)	relative viability (Motesanib + Pictilisib; first compound 0.03162 µM)	relative viability (Motesanib + Pictilisib; first compound 0.1 µM)	relative viability (Motesanib + Pictilisib; first compound 0.3162 µM)	relative viability (Motesanib + Pictilisib; first compound 1 µM)	relative viability (Motesanib + AZD7762; first compound 0.01 µM)	relative viability (Motesanib + AZD7762; first compound 0.03162 µM)	relative viability (Motesanib + AZD7762; first compound 0.1 µM)	relative viability (Motesanib + AZD7762; first compound 0.3162 µM)	relative viability (Motesanib + AZD7762; first compound 1 µM)	relative viability ([1]; first compound 0.04 µM)	relative viability ([1]; first compound 0.1265 µM)	relative viability ([1]; first compound 0.4 µM)	relative viability ([1]; first compound 1.265 µM)
NCI-H1755	0.782	0.765	0.799	0.85	0.831	0.395	0.423	0.442	0.454	0.402	0.407	0.45	0.467	0.425	0.383	0.638	0.55	0.53	0.547
HCC-78	0.653	0.671	0.701		0.735	0.182	0.198	0.174	0.207	0.182	0.657	0.547	0.907		0.795	0.798	0.452	0.346	0.319
IA-LM						0.38	0.346	0.351	0.318	0.519									
NCI-H322M	0.471	0.558	0.554	0.527	0.545	0.52	0.544	0.511	0.439	0.538	0.568	0.531	0.53	0.488	0.452	0.686	0.561	0.531	0.499
NCI-H3122	0.218	0.227	0.229	0.211	0.197	0.46	0.534	0.618	0.626	0.667	0.972	1.02	0.945	1.06	1.15	0.411	0.373	0.387	0.575
COR-L23	0.352	0.654	0.602	0.708	0.74	0.701	0.864	0.732	0.836	0.854						0.454	0.407	0.406	0.241
NCI-H2087			0.199	0.182	0.182	0.695	0.794	0.705	0.988	0.843			1.41	1.13	1.55	0.437	0.342	0.313	0.237
LC-2-ad	0.9	0.903	0.865	0.871	0.84	0.449	0.593	0.479	0.568	0.421	0.858	0.876	0.868	0.837	0.842	0.484	0.388	0.369	0.257
NCI-H2023	0.666	0.339	0.574	0.589	0.569	0.234	0.226	0.276	0.239	0.238						0.354	0.271	0.294	0.189
COR-L 105	0.451	0.383	0.41	0.422	0.448	0.489	0.439	0.395	0.49	0.385						0.422	0.368	0.346	0.393
